Where two headings read alike, the source gives them in different places. Values belong to the substance of their own block, whether it stands above or below them. Where no end group is shown, it is not given here. [ ]: non-standard residue; d: D form.
Assays:
cells = test: Penetration of biotinylated peptides inside cells (microscopy, S-PO coloration); type: cell-based; settings: biotinylated peptides 50 to 6 μg/ml, 1-18 hours, revealed with S-PO
Procedure: The cells are cultivated in the presence of the different peptides carrying, on the N-terminal side, biotin in decreasing concentrations (50 to 6 μg/ml) in the culture medium for variable times (1-18 hours).
At the end of the culture, the cells are washed three times with PBS (0.15 M NaCl buffered with 0.01 M potassium phosphate buffer pH 7.4) then fixed 15 minutes in ethanol at −20° C. The penetration of the peptide is evaluated after incubation for 30 minutes with streptavidin conjugated with peroxidase (abbreviated S-PO for streptavidin-peroxidase). Then, the S-PO is eliminated, and the cells are washed. […] With the other peptides, positive colorations, but of variable intensity, were noted.

H1299 cells [1] = test: Internalization of biotinylated peptide/S-PO complexes; type: cell-based, human
Procedure: A biotinylated/S-PO peptide or biotinylated/A-PO complex (A-PO for avidin-peroxidase) is prepared extemporaneously in two ways:
1) either in a peptide: S-PO or A-PO molar ratio of 4:1 (for example, 1.4 μg of peptide with a molecular weight of 3500 to 10 μg of S-PO; the weight of S-PO used varies depending on the peptides since their molecular weights are different).
2) or in a peptide: S-PO or A-PO molar ratio of 25:1 (for example 1.7 μg of peptide with a molecular weight of 3500 to 1 μg of S-PO).
The complexes are prepared by incubating the biotinylated peptide with S-PO or A-PO in PBS in a volume of 5 to 10 μl for 15 minutes at laboratory temperature. They are then diluted in 1 ml of complete culture medium, filtered on a 0.2 micron membrane and incubated with the cells for 4 hours. The cells are then washed three times with PBS.
To study the penetration of the complexes under a microscope, the cells are fixed as before for 15 minutes in ethanol at −20° C., they are washed with PBS, and the activity of the internalized peroxidase is shown by diaminobenzidine in the presence of H2O2. To measure the quantity of peptide/S-PO or A-PO complexes internalized, the cells are trypsinized, transferred into microtubes and counted. They are washed twice by centrifugation, then the residue is suspended in 200 μl of lysis buffer (Tris buffer, 0.1 M, pH8, 0.5% Nonidet). After 15 minutes, the peroxidase contained in the lysis buffer is dosed onto 96-well plates with ortho-dianisidine and H2O2 by comparison with a standard curve for S-PO. The reading is taken at 450 nm. The quantity contained in the different samples is expressed in picograms (pg) per 10^4 cells.
Table 7 below reports the results of evaluating the influence of SEQ ID NO: 1 on the penetration of peptides coupled to SEQ ID NO: 1 into H1299 cells, where
Concentration a: 25 peptides to one molecule of S-PO (1 μg),
Concentration b: 4 peptides to one molecule of S-PO (10 μg).

HeLa = test: Internalization of covalent peptide-peroxidase conjugates; type: cell-based, human; settings: 2 hours
Procedure: (§1) To evaluate more directly the penetration of the peptides, avoiding the avidin-peroxidase bias, some of the peptides in sequences SEQ ID NO: 25 to 48 were conjugated covalently with cysteine in the C-terminal position of the peptide to peroxidase. The peptides were coupled with peroxidase in the following way:
(§2) One mg of peroxidase activated with maleimide (Sigma) in 100 μl of sodium phosphate buffer, NaCl 0.15 M, EDTA 5 mM, had 1 mg of peptide added to it. After 2 hours at laboratory temperature, β-mercaptoethanol is added to a final concentration of 1.5 mM for 15 minutes. The uncoupled peptide is eliminated by centrifugation on ultrafiltration membranes (cut-off threshold=30,000 Daltons, Sartorius), followed by three washings in sodium phosphate buffer 0.1 M, pH 7.4 containing 0.15 M NaCl.
(§3) It appears that the higher the concentration of peptide-peroxidase conjugate in the culture medium, the more the quantity internalized increases. To compare the penetration of the conjugates by cell type, the cells from different lines were incubated with 0.2 μg/ml of peptide-peroxidase conjugate for 2 hours, and the quantity of peroxidase dosed in the lysates. Table 9 and Table 9B below give the results expressed in pg/10^3 cells. The quantity of each peptide internalized in the different lines generally varies only from single to double.

3T3 = test: as above; type: cell-based, mouse; settings: 2 hours
Procedure: as §1, §2, §3

H1299 cells [2] = test: as above; type: cell-based, human; settings: H1299, 0.2 μg/ml conjugate, 2 hours
Procedure: as §1, §2
The H1299 cells are incubated for 2 hours with the conjugates at increasing concentrations of peptide-peroxidase in the culture medium, then washed with PBS. The cells are lysed and the quantity of peptide internalized is evaluated by the dosage of peroxidase in the lysate of the cells with reference to a curve established with peptide-peroxidase.
The quantity of peptide internalized (pg/10^3 cells), depending on the concentrations of conjugates in the culture medium, is shown in Table 8 below.
as §3

[3] = ELISA fixation of biotinylated peptides on sensitized plates; type: binding
[4] = as above; type: binding; remark: listed apart in the source
[5] = as above; type: binding; remark: listed apart in the source
DNA = test: as above; type: binding; settings: ELISA plates sensitized with DNA; read-out: avidity: quantity of peptides necessary to obtain 50% fixation, DNA
Procedure: (§4) The capacity of peptides SEQ ID NO: 1 to 21 to attach themselves to DNA and heparin is evaluated on ELISA plates sensitized with DNA or heparin. Dilutions of biotinylated peptides are deposited on the plates and their fixation is shown using streptavidin conjugated with peroxidase. […] The avidity of each of the peptides for DNA or heparin is evaluated by the quantity (×10^−6 M) of peptides necessary to obtain 50% fixation.

[6] = as above; type: binding; settings: ELISA plates sensitized with heparin; Table 4; read-out: avidity: quantity of peptides necessary to obtain 50% fixation, Heparin
Procedure: as §4

[7] = peptide: S-PO complexes of 4:1, peptide concentration of 1 μg
[8] = Conc. a: 25 peptides to one molecule of S-PO (1 μg)
[9] = Conc. b: 4 peptides to one molecule of S-PO (10 μg)

Substance: SEQ ID NO: 17: Peptide reacting with heparin derived from human lipoprotein E (LRKRLLRD; listed as Homo sapiens)
intracellular cytochemical coloration (cells): do not give any positive intracellular cytochemical coloration | S-PO internalized (H1299 cells [1]; [7]): 3 pg/10^4 cells

Substance: SEQ ID NO: 11: SEQ ID NO: 1 and CDR3 of the human anti-DNA monoclonal antibody RT72 (VKRGLKLGYYDFWSGPGKN; listed as Homo sapiens)
intracellular cytochemical coloration (cells): do not give any positive intracellular cytochemical coloration

Substance: SEQ ID NO: 6: Peptide containing part of CDR2 and CDR3 regions of monoclonal murine antibody F4.1 (TYYSDTVKGRFTRQKYNKRA; Mus musculus x Rattus norvegicus)
intracellular cytochemical coloration (cells): Faint coloration | S-PO internalized (H1299 cells [1]; [8]): 1 pg/10^4 cells | S-PO internalized (H1299 cells [1]; [9]): 130 pg/10^4 cells

Substance: SEQ ID NO: 4: Peptide corresponding to the hypervariable area CD3 of the anti-DNA monoclonal murine antibody F4.1 (RQKYNKRAMDY; Mus musculus x Rattus norvegicus)
intracellular cytochemical coloration (cells): do not give any positive intracellular cytochemical coloration | S-PO internalized (H1299 cells [1]; [8]): 2 pg/10^4 cells | S-PO internalized (H1299 cells [1]; [9]): 280 pg/10^4 cells

Substance: SEQ ID NO: 5: Peptide containing SEQ ID NO: 1 and SEQ ID NO: 4 (VKRGLKLRQKYNKRAMDY; Homo sapiens - Mus musculus - Rattus norvegicus)
intracellular cytochemical coloration (cells): intense coloration | S-PO internalized (H1299 cells [1]; [8]): 100 pg/10^4 cells | S-PO internalized (H1299 cells [1]; [9]): 6250 pg/10^4 cells

Internalization of Peptide-peroxidase (HeLa; Table 9B, 0.2 μg/ml conjugate): 8.7 pg/10^3 cells | Internalization of Peptide-peroxidase (3T3; Table 9B, 0.2 μg/ml conjugate): 75.9 pg/10^3 cells
Substance: SEQ ID NO: 31: homolog of SEQ ID NO: 30 with amino acid sequence in the reverse position (b233 says SEQ ID NO: 12) (PDRKKGLKGKKKRKKG; (1)..(16) The amino acids are in front-back position; listed as Homo sapiens)
Internalization of Peptide-peroxidase (H1299 cells [2]; Table 9B): 70.6 pg/10^3 cells

Substance: SEQ ID NO: 19: Dimer of SEQ ID NO: 18 (KSRKKSRK; not fully specified; listed as Homo sapiens)
intracellular cytochemical coloration (cells): Faint coloration | S-PO internalized (H1299 cells [1]; [7]): 167 pg/10^4 cells

Substance: SEQ ID NO: 7: Peptide containing SEQ ID NO: 1 and SEQ ID NO: 6 (VKRGLKLTYYSDTVKGRFTRQYNKRA; Homo sapien - Mus musculus - Rattus norvegicus)
intracellular cytochemical coloration (cells): intense coloration | S-PO internalized (H1299 cells [1]; [8]): 240 pg/10^4 cells | S-PO internalized (H1299 cells [1]; [9]): 220 pg/10^4 cells

Internalization of Peptide-peroxidase (HeLa; Table 9B, 0.2 μg/ml conjugate): 4.1 pg/10^3 cells | Internalization of Peptide-peroxidase (3T3; Table 9B, 0.2 μg/ml conjugate): 63.7 pg/10^3 cells
Substance: SEQ ID NO: 27: SEQ ID NO: 26 in which the amino acids are in configuration D ([dS][dE][dR][dK][dK][dR][dR][dR][dE][dS][dR][dK][dK][dR][dR][dR][dE][dS]; listed as Homo sapiens)
Internalization of Peptide-peroxidase (H1299 cells [2]; Table 9B): 59.1 pg/10^3 cells

Substance: SEQ ID NO: 12: Peptide containing the NLS sequence of cells 3T3 and SEQ ID NO: 6 (NVKKPKLTYYSDTVKGRFTRQKYNKRA; Mus musculus x Rattus norvegicus)
intracellular cytochemical coloration (cells): do not give any positive intracellular cytochemical coloration

Substance: SEQ ID NO: 18: Peptide reacting with heparin derived from the amino acid sequence of agrine (KSRK; listed as Homo sapiens)
intracellular cytochemical coloration (cells): do not give any positive intracellular cytochemical coloration | S-PO internalized (H1299 cells [1]; [7]): 3 pg/10^4 cells

Substance: SEQ ID NO: 9: Peptide containing SEQ ID NO: 1 and SEQ ID NO: 8 (VKRGLKLVRRSGRVVVPAAPRNRD; listed as Homo sapiens)
intracellular cytochemical coloration (cells): intense coloration | S-PO internalized (H1299 cells [1]; [8]): 340 pg/10^4 cells | S-PO internalized (H1299 cells [1]; [9]): 8280 pg/10^4 cells

Internalization of Peptide-peroxidase (HeLa; Table 9, 0.2 μg/ml conjugate): 4.4 pg/10^3 cells | Internalization of Peptide-peroxidase (3T3; Table 9, 0.2 μg/ml conjugate): 20.3 pg/10^3 cells
Substance: AKTGKRKRSG [SEQ ID NO: 36]
Kd ([3]; read-out: avidity (Kd), quantity of peptides necessary to obtain 50% fixation, Chondroitin A, Table 5): 287 nM | Kd ([4]; read-out: avidity (Kd), quantity of peptides necessary to obtain 50% fixation, Chondroitin C, Table 5): 205 nM | Kd ([5]; read-out: avidity (Kd), quantity of peptides necessary to obtain 50% fixation, Chondroitin B, Table 5): 301 nM | Internalization of Peptide-peroxidase (H1299 cells [2]; Table 9): 10.6 pg/10^3 cells

Substance: SEQ ID NO: 8: Peptide corresponding to the hypervariable CD3 region of human anti-DNA monoclonal antibody RTT79 (VRRSGRVVVPAAPRNRD; listed as Homo sapiens)
intracellular cytochemical coloration (cells): Faint coloration | S-PO internalized (H1299 cells [1]; [8]): 50 pg/10^4 cells | S-PO internalized (H1299 cells [1]; [9]): 1310 pg/10^4 cells

Internalization of Peptide-peroxidase (HeLa; Table 9B, 0.2 μg/ml conjugate): 7.7 pg/10^3 cells | Internalization of Peptide-peroxidase (3T3; Table 9B, 0.2 μg/ml conjugate): 50 pg/10^3 cells
Substance: SEQ ID NO: 32: SEQ ID NO: 30 in which the amino acids are in configuration D (G[dK][dR][dK][dK][dK]G[dK][dL]G[dK][dK][dR][dD]; listed as Homo sapiens)
Internalization of Peptide-peroxidase (H1299 cells [2]; Table 9B): 56.7 pg/10^3 cells

Substance: VKRGLKL (listed as Homo sapiens) [SEQ ID NO: 1, Peptide reacting with heparin from human lipoprotein B]
intracellular cytochemical coloration (cells): do not give any positive intracellular cytochemical coloration | S-PO internalized (H1299 cells [1]; [7]): 3 pg/10^4 cells

Substance: TYYSDTVKGRFTRQKYNKRA [compound 6]
EC50 ([3]; Table 4, read-out: avidity: quantity of peptides necessary to obtain 50% fixation, Chondroitin A): 240 nM | EC50 (DNA): 190 nM | EC50 [6]: 160 nM | EC50 ([4]; Table 4, read-out: avidity: quantity of peptides necessary to obtain 50% fixation, Chondroitin C): 220 nM | EC50 ([5]; Table 4, read-out: avidity: quantity of peptides necessary to obtain 50% fixation, Chondroitin B): 250 nM

— patent US8003595B2, “Amino acid sequences facilitating penetration of a substance of interest into cells and/or cell nuclei” (Cellectis, priority 2000, dated 2011)
